Measurements published in EP0048613B1, “4-0-Substituted -2-deoxystreptamine aminoglycoside derivatives, their preparation and formulations containing them” (ELI LILLY AND COMPANY, priority 1980, dated 1982).
≈ marks a conversion by molar mass, not a printed value. Read-outs that look alike come from different tables or passages of the source.

Experiments:
[1] = system: Bordetella bronchiseptica 16; assay: MIC, standard agar dilution test; assay type: cell-based; settings: read-out: Minimum inhibitory concentration
Source text: (§1) The antibacterial activity of the deprotected compounds of this invention is illustrated by the following in vitro and in vivo test data obtained with representative compounds. In Table I, the minimum inhibitory concentration (MIC) for representative compounds against a wide range of gram-positive and gram-negative bacteria is presented. The MIC values were obtained by the standard agar dilution test.

[2] = system: Citrobacter freundii CF17; assay: MIC, standard agar dilution test; assay type: cell-based; settings: read-out: Minimum inhibitory concentration
Source text: as §1

[3] = system: Enterobacter aerogenes C32; assay: MIC, standard agar dilution test; assay type: cell-based; settings: Klebsiella aerogenes, read-out: Minimum inhibitory concentration
Source text: as §1

[4] = system: Enterobacter aerogenes EB17; assay: MIC, standard agar dilution test; assay type: cell-based; settings: Klebsiella aerogenes, read-out: Minimum inhibitory concentration
Source text: as §1

[5] = system: Enterobacter aerogenes X68; assay: MIC, standard agar dilution test; assay type: cell-based; settings: Klebsiella aerogenes, read-out: Minimum inhibitory concentration
Source text: as §1

[6] = system: Enterobacter cloacae 265A; assay: MIC, standard agar dilution test; assay type: cell-based; settings: read-out: Minimum inhibitory concentration
Source text: as §1

Enterobacter cloacae EB5 = assay: MIC, standard agar dilution test; assay type: cell-based; settings: read-out: Minimum inhibitory concentration
Source text: as §1

Escherichia coli EC14 = assay: MIC, standard agar dilution test; assay type: cell-based; settings: read-out: Minimum inhibitory concentration
Source text: as §1

Escherichia coli N10 = assay: MIC, standard agar dilution test; assay type: cell-based; settings: read-out: Minimum inhibitory concentration
Source text: as §1

Escherichia coli TEM = assay: MIC, standard agar dilution test; assay type: cell-based; settings: Escherichia coli, read-out: Minimum inhibitory concentration
Source text: as §1

Hemophilus influenzae 76 = assay: MIC, standard agar dilution test; assay type: cell-based; settings: Haemophilus influenzae, read-out: Minimum inhibitory concentration
Source text: as §1

[7] = system: Hemophilus influenzae C.L.; assay: MIC, standard agar dilution test; assay type: cell-based; settings: Haemophilus influenzae, read-out: Minimum inhibitory concentration
Source text: as §1

[8] = system: Klebsiella pneumoniae KAE; assay: MIC, standard agar dilution test; assay type: cell-based; settings: read-out: Minimum inhibitory concentration
Source text: as §1

[9] = system: Klebsiella pneumoniae X26; assay: MIC, standard agar dilution test; assay type: cell-based; settings: read-out: Minimum inhibitory concentration
Source text: as §1

Proteus inconstans PR33 = assay: MIC, standard agar dilution test; assay type: cell-based; settings: Providencia alcalifaciens, read-out: Minimum inhibitory concentration
Source text: as §1

Proteus morganii PR15 = assay: MIC, standard agar dilution test; assay type: cell-based; settings: Morganella morganii, read-out: Minimum inhibitory concentration
Source text: as §1

Proteus rettgeri C24 = assay: MIC, standard agar dilution test; assay type: cell-based; settings: Providencia rettgeri, read-out: Minimum inhibitory concentration
Source text: as §1

Proteus rettgeri PR7 = assay: MIC, standard agar dilution test; assay type: cell-based; settings: Providencia rettgeri, read-out: Minimum inhibitory concentration
Source text: as §1

[10] = system: Pseudomonas aeruginosa Ps18; assay: MIC, standard agar dilution test; assay type: cell-based; settings: read-out: Minimum inhibitory concentration
Source text: as §1

[11] = system: Pseudomonas aeruginosa X239; assay: MIC, standard agar dilution test; assay type: cell-based; settings: read-out: Minimum inhibitory concentration
Source text: as §1

[12] = system: Pseudomonas aeruginosa X528; assay: MIC, standard agar dilution test; assay type: cell-based; settings: read-out: Minimum inhibitory concentration
Source text: as §1

[13] = system: Salmonella heidelberg X514; assay: MIC, standard agar dilution test; assay type: cell-based; settings: Salmonella enterica, read-out: Minimum inhibitory concentration
Source text: as §1

[14] = system: Salmonella typhimurium 1335; assay: MIC, standard agar dilution test; assay type: cell-based; settings: Salmonella enterica, read-out: Minimum inhibitory concentration
Source text: as §1

Serratia marcescens SE3 = assay: MIC, standard agar dilution test; assay type: cell-based; settings: read-out: Minimum inhibitory concentration
Source text: as §1

Serratia marcescens X99 = assay: MIC, standard agar dilution test; assay type: cell-based; settings: read-out: Minimum inhibitory concentration
Source text: as §1

Shigella sonnei N9 = assay: MIC, standard agar dilution test; assay type: cell-based; settings: read-out: Minimum inhibitory concentration
Source text: as §1

[15] = system: Staphylococcus aureus S13E; assay: MIC, standard agar dilution test; assay type: cell-based; settings: Staphylococcus aureus, S13E, read-out: Minimum inhibitory concentration
Source text: as §1

[16] = system: Staphylococcus aureus V41; assay: MIC, standard agar dilution test; assay type: cell-based; settings: read-out: Minimum inhibitory concentration
Source text: as §1

[17] = system: Staphylococcus aureus X1.1; assay: MIC, standard agar dilution test; assay type: cell-based; settings: read-out: Minimum inhibitory concentration
Source text: as §1

[18] = system: Staphylococcus aureus X400; assay: MIC, standard agar dilution test; assay type: cell-based; settings: read-out: Minimum inhibitory concentration
Source text: as §1

[19] = system: Staphylococcus epidermidis EPI1; assay: MIC, standard agar dilution test; assay type: cell-based; settings: Staphylococcus epidermidis, EPI1; read-out: Minimum inhibitory concentration
Source text: as §1

[20] = system: Staphylococcus epidermidis EPI2; assay: MIC, standard agar dilution test; assay type: cell-based; settings: read-out: Minimum inhibitory concentration
Source text: as §1

[21] = system: Streptococcus group D 9960; assay: MIC, standard agar dilution test; assay type: cell-based; settings: D9960, read-out: Minimum inhibitory concentration
Source text: as §1

[22] = system: Streptococcus group D X66; assay: MIC, standard agar dilution test; assay type: cell-based; settings: DX66, read-out: Minimum inhibitory concentration
Source text: as §1

[23] = system: Streptococcus pneumoniae Park I; assay: MIC, standard agar dilution test; assay type: cell-based; settings: Streptococcus pneumoniae; read-out: Minimum inhibitory concentration
Source text: as §1

[24] = system: Streptococcus pyogenes C203; assay: MIC, standard agar dilution test; assay type: cell-based; settings: read-out: Minimum inhibitory concentration
Source text: as §1

[25] = system: Staphylococcus aureus 3055; assay: Subcutaneous therapy of experimental bacterial infection in mice; assay type: in vivo; settings: Staphylococcus aureus, 3055, sc, subcutaneous doses at 1 and 5 hours post infection, read-out: Effective dose (ED50)
Method: Table II illustrates the effective dose (ED50, effective dose to protect 50 percent of the test animals) for representative compounds of this invention against an experimental bacterial infection in mice.
The EDso values were determined as described by W. E. Wick et al., Journal of Bacteriology, 81 [No. 2], 233-235 (1961).

SMILES	MIC [1]	MIC [2]	MIC [3]	MIC [4]	MIC [5]	MIC [6]	MIC (Enterobacter cloacae EB5)	MIC (Escherichia coli EC14)	MIC (Escherichia coli N10)	MIC (Escherichia coli TEM)	MIC (Hemophilus influenzae 76)	MIC [7]	MIC [8]	MIC [9]	MIC (Proteus inconstans PR33)	MIC (Proteus morganii PR15)	MIC (Proteus rettgeri C24)	MIC (Proteus rettgeri PR7)	MIC [10]	MIC [11]	further results
CNC1C(OC2OC(CO)C(N)C(O)C2O)OC2CC(NC(=O)C(O)CCN)C(OC3C(N)CC(N)C(O)C3O)OC2C1O (stereo not drawn) [Test compound 1, 2′-N-(S-γ-Amino-α-hydroxybutyryl)apramycin]	128 µg/mL (≈ 200 µM)	32 µg/mL (≈ 49.9 µM)	16 µg/mL (≈ 25 µM)	16 µg/mL (≈ 25 µM)	16 µg/mL (≈ 25 µM)	64 µg/mL (≈ 99.9 µM)	32 µg/mL (≈ 49.9 µM)	32 µg/mL (≈ 49.9 µM)	16 µg/mL (≈ 25 µM)	8 µg/mL (≈ 12.5 µM)	32 µg/mL (≈ 49.9 µM)	64 µg/mL (≈ 99.9 µM)	16 µg/mL (≈ 25 µM)	8 µg/mL (≈ 12.5 µM)	16 µg/mL (≈ 25 µM)	128 µg/mL (≈ 200 µM)	16 µg/mL (≈ 25 µM)	8 µg/mL (≈ 12.5 µM)	128 µg/mL (≈ 200 µM)	64 µg/mL (≈ 99.9 µM)	MIC [12]: 128 µg/mL (≈ 200 µM); MIC [13]: 32 µg/mL (≈ 49.9 µM); MIC [14]: 16 µg/mL (≈ 25 µM); MIC (Serratia marcescens SE3): 32 µg/mL (≈ 49.9 µM); MIC (Serratia marcescens X99): 16 µg/mL (≈ 25 µM); MIC (Shigella sonnei N9): 32 µg/mL (≈ 49.9 µM); MIC [15]: 16 µg/mL (≈ 25 µM); MIC [16]: 32 µg/mL (≈ 49.9 µM); MIC [17]: 16 µg/mL (≈ 25 µM); MIC [18]: 64 µg/mL (≈ 99.9 µM); MIC [19]: 16 µg/mL (≈ 25 µM); MIC [20]: 4 µg/mL (≈ 6.24 µM); MIC [21]: > 128 µg/mL; MIC [22]: > 128 µg/mL; MIC [23]: 32 µg/mL (≈ 49.9 µM); MIC [24]: 32 µg/mL (≈ 49.9 µM); ED50 ([25]; challenged with 68.1 LD50's): 6.5 mg/kg
CNC1C(OC2OC(CO)C(N)C(O)C2O)OC2CC(NC(=O)CN)C(OC3C(N)CC(N)C(O)C3O)OC2C1O (stereo not drawn) [Test compound 3, 2′-N-Glycylapramycin]	128 µg/mL (≈ 215 µM)	64 µg/mL (≈ 107 µM)	16 µg/mL (≈ 26.8 µM)	16 µg/mL (≈ 26.8 µM)	16 µg/mL (≈ 26.8 µM)	32 µg/mL (≈ 53.6 µM)	32 µg/mL (≈ 53.6 µM)	32 µg/mL (≈ 53.6 µM)	64 µg/mL (≈ 107 µM)	8 µg/mL (≈ 13.4 µM)	32 µg/mL (≈ 53.6 µM)	16 µg/mL (≈ 26.8 µM)	16 µg/mL (≈ 26.8 µM)	8 µg/mL (≈ 13.4 µM)	32 µg/mL (≈ 53.6 µM)	128 µg/mL (≈ 215 µM)	16 µg/mL (≈ 26.8 µM)	32 µg/mL (≈ 53.6 µM)	128 µg/mL (≈ 215 µM)	64 µg/mL (≈ 107 µM)	MIC [12]: 128 µg/mL (≈ 215 µM); MIC [13]: 32 µg/mL (≈ 53.6 µM); MIC [14]: 64 µg/mL (≈ 107 µM); MIC (Serratia marcescens SE3): 32 µg/mL (≈ 53.6 µM); MIC (Serratia marcescens X99): 16 µg/mL (≈ 26.8 µM); MIC (Shigella sonnei N9): 16 µg/mL (≈ 26.8 µM); MIC [15]: 32 µg/mL (≈ 53.6 µM); MIC [16]: 64 µg/mL (≈ 107 µM); MIC [17]: 16 µg/mL (≈ 26.8 µM); MIC [18]: 128 µg/mL (≈ 215 µM); MIC [19]: 16 µg/mL (≈ 26.8 µM); MIC [20]: 8 µg/mL (≈ 13.4 µM); MIC [21]: > 128 µg/mL; MIC [22]: > 128 µg/mL; MIC [23]: 128 µg/mL (≈ 215 µM); MIC [24]: 64 µg/mL (≈ 107 µM); ED50 ([25]; challenged with 1794 LD50's): 30 mg/kg
CCNC1CC2OC(OC3OC(CO)C(N)C(O)C3O)C(NC)C(O)C2OC1OC1C(N)CC(N)C(O)C1O (stereo not drawn) [Test compound 4, 2′-N-ethylapramycin]	32 µg/mL (≈ 56.4 µM)	16 µg/mL (≈ 28.2 µM)	8 µg/mL (≈ 14.1 µM)	8 µg/mL (≈ 14.1 µM)	8 µg/mL (≈ 14.1 µM)	32 µg/mL (≈ 56.4 µM)	16 µg/mL (≈ 28.2 µM)	8 µg/mL (≈ 14.1 µM)	8 µg/mL (≈ 14.1 µM)	2 µg/mL (≈ 3.52 µM)	16 µg/mL (≈ 28.2 µM)	16 µg/mL (≈ 28.2 µM)	8 µg/mL (≈ 14.1 µM)	4 µg/mL (≈ 7.05 µM)	8 µg/mL (≈ 14.1 µM)	32 µg/mL (≈ 56.4 µM)	8 µg/mL (≈ 14.1 µM)	8 µg/mL (≈ 14.1 µM)	32 µg/mL (≈ 56.4 µM)	64 µg/mL (≈ 113 µM)	MIC [12]: 64 µg/mL (≈ 113 µM); MIC [13]: 16 µg/mL (≈ 28.2 µM); MIC [14]: 8 µg/mL (≈ 14.1 µM); MIC (Serratia marcescens SE3): 16 µg/mL (≈ 28.2 µM); MIC (Serratia marcescens X99): 8 µg/mL (≈ 14.1 µM); MIC (Shigella sonnei N9): 8 µg/mL (≈ 14.1 µM); MIC [15]: 8 µg/mL (≈ 14.1 µM); MIC [16]: 8 µg/mL (≈ 14.1 µM); MIC [17]: 4 µg/mL (≈ 7.05 µM); MIC [18]: 16 µg/mL (≈ 28.2 µM); MIC [19]: 8 µg/mL (≈ 14.1 µM); MIC [20]: 2 µg/mL (≈ 3.52 µM); MIC [21]: > 128 µg/mL; MIC [22]: 128 µg/mL (≈ 225 µM); MIC [23]: 16 µg/mL (≈ 28.2 µM); MIC [24]: 16 µg/mL (≈ 28.2 µM); ED50 ([25]; challenged with 68.1 LD50's): < 4.35 mg/kg
